In publication PMC9860313 (2022):

Tests used:
[1] = tested on: aptamer-F (theophylline aptamer) (RNA, aptamer) GGCGAUACCAGCCGAAAGGCCCUUGGCAGCGUC; assay: fluorescence strand invasion assay; settings: 10 mM NaCl, 5 mM MgCl2; 20 mM HEPES pH 7.5, 0.01% Tween-20; 37°C; inhibits invasion by BBQ-650 2'-F quencher strand (Q-invader); apparent
[2] = tested on: aptamer-B (theophylline aptamer) (RNA, aptamer, 3'-terminal (A)10 spacer is DNA (positions 34-43)) GGCGAUACCAGCCGAAAGGCCCUUGGCAGCGUC; assay: surface plasmon resonance; settings: 150 mM NaCl, 5 mM MgCl2; 10 mM HEPES pH 7.4, 0.01-0.1% DMSO, 25°C
[3] = tested on: stabilized aptamer (RNA, aptamer) GGCGAUACCAGCCGAAAGGCCCUUGGCAGCGCC; assay: X-ray crystallography; settings: 30 mM NaCl, 5 mM MgCl2, 5 mM HEPES pH 7.5, 0.4 mM RNA, 1 mM ligand
[4] = tested on: pentaloop aptamer (RNA, aptamer) GGCGAUACCAGCGAAACACGCCCUUGGCAGCGUC; assay: X-ray crystallography, soaked crystal; settings: 30 mM KCl, 10 mM MgCl2 (RNA refolding); Fab-RNA crystals soaked in 1.1 mM TAL2, 1 h; ligand not precisely placed
[5] = tested on: mutant aptamer-B (U24C) (RNA, aptamer, 3'-terminal (A)10 spacer is DNA (positions 34-43)) GGCGAUACCAGCCGAAAGGCCCUCGGCAGCGUC; assay: surface plasmon resonance; settings: 150 mM NaCl, 5 mM MgCl2; 10 mM HEPES pH 7.4, 0.01-0.1% DMSO, 25°C; highest concentration 0.1-2.0 µM
[6] = crystals from cacodylate pH 6.5, PEG 8K, MPD

Row | SMILES | IC50 [1] | Kd [2] | binding [3, 6] | binding [4] | binding [5] | binding ([3]; 0.2 M Ca(OAc)2 in reservoir, crystals from PEG 3350, 20°C)
1 | COc1cc2ncnc(N3CCN(CCCCO)CC3)c2cc1OC | 1920 nM | 280 nM | yes |  |  | 
2 | Cn1c(=O)c2[nH]cnc2n(C)c1=O | 1990 nM | 670 nM | yes |  | no | 
3 | Cn1c(=O)cnc2c(N)nc(=O)[nH]c21 | 460 nM | 2 nM |  |  |  | yes

The remaining lines, values ahead:

Row | IC50 [1] | Kd [2] | binding [3, 6] | binding [4] | binding [5] | binding ([3]; 0.2 M Ca(OAc)2 in reservoir, crystals from PEG 3350, 20°C) | SMILES
4 | 1160 nM | 23 nM | yes |  |  |  | COc1cc2c(O)ncnc2cc1OCC1CCN(C)CC1
5 | 700 nM | 9.1 nM | yes | yes |  |  | COc1cc2c(O)ncnc2cc1OCCCN1CCCCC1
